Data published in patent US10538490B2, “Benzylaminopyridylcyclopropanecarboxylic acids, pharmaceutical compositions and uses thereof” (Boehringer Ingelheim International GmbH, priority 2016, dated 2020).

Molecular target: human GPR40 receptor (Homo sapiens, UniProt O14842)
Assay: IP1 accumulation measurements using the IPOne assay system
Type: cell-based
Conditions: 1321N1 cells stably expressing human GPR40 receptor, stimulation 1 h at 37° C.
Method: IP1 accumulation measurements using the IPOne assay system—1321N1 cells stably expressing human GPR40 receptor (Euroscreen, Belgium) are seeded 24 h before the assay in white 384-well plates in culture medium containing 10% FCS, 1% Na-Pyruvate and 400 μg/mL G418. IPi is assayed according to the manufacturer's description (Cisbio Bioassays, France). In brief, the assay is started by substitution of the culture medium by stimulation buffer (Hepes 10 mM, CaCl2 1 mM, MgCl2 0.5 mM, KCl 4.2 mM, NaCl 146 mM, glucose 5.5 mM and LiCl 50 mM, pH 7.4). Cells are stimulated for 1 h at 37° C., 5% CO2 by addition of the compounds that are diluted in stimulation buffer containing LiCl. Assays are stopped by adding HTRF-conjugates (IP1-d2 and Anti-IP1 cryptate Tb) and lysis buffer, provided by the manufacturer. After an incubation time of 1 h at room temperature plates are measured using an EnVision™, Perkin Elmer. The obtained fluorescence ratios at 665/615 […] are then used to calculate the pEC50 values using Assay Explorer 3.3 Software (Accelrys, Inc.) by interpolation using an IP1 reference curve and subsequent sigmoidal curve fitting allowing for a variable hill slope.

human GPR40 receptor, sequence (O14842 whole entry): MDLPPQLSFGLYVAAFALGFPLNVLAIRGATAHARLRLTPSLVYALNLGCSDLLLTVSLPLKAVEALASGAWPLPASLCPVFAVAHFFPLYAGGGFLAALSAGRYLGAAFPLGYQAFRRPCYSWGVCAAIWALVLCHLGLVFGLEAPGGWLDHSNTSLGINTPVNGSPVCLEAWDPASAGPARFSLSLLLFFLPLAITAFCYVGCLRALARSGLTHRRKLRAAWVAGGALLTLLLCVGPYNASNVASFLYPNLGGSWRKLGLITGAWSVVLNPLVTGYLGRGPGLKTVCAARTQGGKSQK

| Compound | EC50 |
| --- | --- |
| NCc1ccc(F)c(-c2cc(CNc3ccc([C@H]4C[C@@H]4C(=O)O)cn3)c(F)cc2F)c1 [Example 3, (1S,2S)-2-{6-[(5′-Aminomethyl-4,6,2′-trifluoro-biphenyl-3-ylmethyl)-amino]-pyridin-3-yl}-cyclopropanecarboxylic Acid] | > 10000 nM |
| Cc1cc(OCCC(C)(C)O)cc(C)c1-c1cc(CNc2ccc([C@H]3C[C@@H]3C(=O)O)cn2)ccc1C(F)(F)F [Example 5, (1S,2S)-2-(6-{[4′-(3-Hydroxy-3-methyl-butoxy)-2′,6′-dimethyl-6-trifluoromethyl-biphenyl-3-ylmethyl]-amino}-pyridin-3-yl)-cyclopropanecarboxylic Acid] | 12 nM |
| O=C(O)[C@H]1C[C@@H]1c1ccc(NCc2ccc(C(F)(F)F)c(-c3ccc(OC(F)(F)F)cc3)c2)nc1 [Example 6, (1S,2S)-2-{6-[(4′-Trifluoromethoxy-6-trifluoromethyl-biphenyl-3-ylmethyl)-amino]-pyridin-3-yl}-cyclopropanecarboxylic Acid] | 38 nM |
| Cc1cc(OCCCS(C)(=O)=O)cc(C)c1-c1cccc(CNc2ccc([C@H]3C[C@@H]3C(=O)O)cn2)c1 [Example 8, (1S,2S)-2-(6-{[4′-(3-Methanesulfonyl-propoxy)-2′,6′-dimethyl-biphenyl-3-ylmethyl]-amino}-pyridin-3-yl)-cyclopropanecarboxylic Acid] | 50 nM |
| Cc1cc(-c2cnccn2)cc(C)c1-c1ccc(F)c(CNc2ccc([C@H]3C[C@@H]3C(=O)O)cn2)c1 [Example 11] | 21 nM |
| Cc1cc(OCCCS(C)(=O)=O)cc(C)c1-c1ccc(F)c(CNc2ccc([C@H]3C[C@@H]3C(=O)O)cn2)c1 [Example 12] | > 10000 nM |
| Cc1cc(-c2ccc(=O)n(C)c2)cc(C)c1-c1ccc(F)c(CNc2ccc([C@H]3C[C@@H]3C(=O)O)cn2)c1 [Example 13] | 17 nM |
| Cc1cc(-c2nnn(CC(C)(C)O)n2)cc(C)c1-c1ccc(F)c(CNc2ccc([C@H]3C[C@@H]3C(=O)O)cn2)c1 [Example 14] | 11 nM |
| Cc1cc(OCC2(O)CCSCC2)cc(C)c1-c1ccc(F)c(CNc2ccc([C@H]3C[C@@H]3C(=O)O)cn2)c1 [Example 16] | 64 nM |
| Cc1cc(OCC(=O)O)cc(C)c1-c1ccc(F)c(CNc2ccc([C@H]3C[C@@H]3C(=O)O)cn2)c1 [Example 17] | 353 nM |
| COc1cc(F)c(-c2ccc(F)c(CNc3ccc([C@H]4C[C@@H]4C(=O)O)cn3)c2)c(F)c1 [Example 19] | 2100 nM |
| O=C(O)[C@H]1C[C@@H]1c1ccc(NCc2cc(-c3c(F)cccc3F)ccc2F)nc1 [Example 20] | 2300 nM |
| O=C(O)[C@H]1C[C@@H]1c1ccc(NCc2cc(-c3c(C(F)(F)F)cccc3C(F)(F)F)ccc2F)nc1 [Example 21] | 834 nM |
| COc1c(F)c(F)c(-c2ccc(F)c(CNc3ccc([C@H]4C[C@@H]4C(=O)O)cn3)c2)c(F)c1F [Example 22] | 477 nM |
| N#Cc1cccc(C#N)c1-c1ccc(F)c(CNc2ccc([C@H]3C[C@@H]3C(=O)O)cn2)c1 [Example 23] | > 10000 nM |
| O=C(O)[C@H]1C[C@@H]1c1ccc(NCc2cc(-c3ccccc3C(F)(F)F)ccc2F)nc1 [Example 24] | 204 nM |
| Cc1cc(C(=O)O)cc(C)c1-c1ccc(F)c(CNc2ccc([C@H]3C[C@@H]3C(=O)O)cn2)c1 [Example 27] | > 10000 nM |
| Nc1cc(F)c(-c2ccc(F)c(CNc3ccc([C@H]4C[C@@H]4C(=O)O)cn3)c2)c(F)c1 [Example 28] | 6720 nM |
| O=C(O)[C@H]1C[C@@H]1c1ccc(NCc2cc(-c3c(F)cc(OC4CC4)cc3F)ccc2F)nc1 [Example 29] | 570 nM |
| O=C(O)[C@H]1C[C@@H]1c1ccc(NCc2cc(-c3c(Cl)cccc3Cl)ccc2F)nc1 [Example 31] | 105 nM |

| Compound | EC50 |
| --- | --- |
| N#CC1(c2ccccc2-c2ccc(F)c(CNc3ccc([C@H]4C[C@@H]4C(=O)O)cn3)c2)CC1 [Example 32] | 1940 nM |
| COc1cc(OC)c(Cl)c(-c2ccc(F)c(CNc3ccc([C@H]4C[C@@H]4C(=O)O)cn3)c2)c1Cl [Example 33] | 128 nM |
| Cc1cc(C(N)=O)cc(C)c1-c1ccc(F)c(CNc2ccc([C@H]3C[C@@H]3C(=O)O)cn2)c1 [Example 34] | 612 nM |
| Cc1cc(OCC2CCOC2)cc(C)c1-c1ccc(F)c(CNc2ccc([C@H]3C[C@@H]3C(=O)O)cn2)c1 (stereo partly shown) [Example 36] | 85 nM |
| Cc1cc(-c2ccn(C)c(=O)c2)cc(C)c1-c1ccc(F)c(CNc2ccc([C@H]3C[C@@H]3C(=O)O)cn2)c1 [Example 44] | 32 nM |
| Cc1cc(OCC2(C)COC2)cc(C)c1-c1ccc(F)c(CNc2ccc([C@H]3C[C@@H]3C(=O)O)cn2)c1 [Example 45] | 147 nM |
| Cc1cc(OCC(C)(C)C#N)cc(C)c1-c1ccc(F)c(CNc2ccc([C@H]3C[C@@H]3C(=O)O)cn2)c1 [Example 46] | 96 nM |
| Cc1cc(OCc2ccccc2)cc(C)c1-c1ccc(F)c(CNc2ccc([C@H]3C[C@@H]3C(=O)O)cn2)c1 [Example 47] | 107 nM |
| Cc1cc(-c2ccn(C)c(=O)n2)cc(C)c1-c1ccc(F)c(CNc2ccc([C@H]3C[C@@H]3C(=O)O)cn2)c1 [Example 49] | 72 nM |
| Cc1cc(-c2ccnn2C)cc(C)c1-c1ccc(F)c(CNc2ccc([C@H]3C[C@@H]3C(=O)O)cn2)c1 [Example 50] | 25 nM |
| COc1cc(OC)c(F)c(-c2ccc(F)c(CNc3ccc([C@H]4C[C@@H]4C(=O)O)cn3)c2)c1F [Example 52] | 1340 nM |
| CC(C)c1ccccc1-c1ccc(F)c(CNc2ccc([C@H]3C[C@@H]3C(=O)O)cn2)c1 [Example 54] | 317 nM |
| Cc1cc(OCC2(O)CCS(=O)(=O)CC2)cc(C)c1-c1ccc(F)c(CNc2ccc([C@H]3C[C@@H]3C(=O)O)cn2)c1 [Example 57] | 422 nM |
| Cc1cc(OCC2CCOCC2)cc(C)c1-c1ccc(F)c(CNc2ccc([C@H]3C[C@@H]3C(=O)O)cn2)c1 [Example 58] | 43 nM |
| CNC(=O)c1cc(C)c(-c2ccc(F)c(CNc3ccc([C@H]4C[C@@H]4C(=O)O)cn3)c2)c(C)c1 [Example 59] | 375 nM |
| Cc1cc(C(=O)N(C)C)cc(C)c1-c1ccc(F)c(CNc2ccc([C@H]3C[C@@H]3C(=O)O)cn2)c1 [Example 60] | 550 nM |
| COc1cc(F)c(-c2cc(CNc3ccc([C@H]4C[C@@H]4C(=O)O)cn3)c(F)cc2F)c(F)c1 [Example 62] | 668 nM |
| O=C(O)[C@H]1C[C@@H]1c1ccc(NCc2cc(-c3c(F)cccc3F)c(F)cc2F)nc1 [Example 63] | 931 nM |
| COc1c(F)c(F)c(-c2cc(CNc3ccc([C@H]4C[C@@H]4C(=O)O)cn3)c(F)cc2F)c(F)c1F [Example 64] | 123 nM |
| N#Cc1cccc(C#N)c1-c1cc(CNc2ccc([C@H]3C[C@@H]3C(=O)O)cn2)c(F)cc1F [Example 65] | > 10000 nM |

| Compound | EC50 |
| --- | --- |
| O=C(O)[C@H]1C[C@@H]1c1ccc(NCc2cc(-c3ccccc3C(F)(F)F)c(F)cc2F)nc1 [Example 66] | 48 nM |
| Cc1cc(C(=O)O)cc(C)c1-c1cc(CNc2ccc([C@H]3C[C@@H]3C(=O)O)cn2)c(F)cc1F [Example 69] | 5960 nM |
| Nc1cc(F)c(-c2cc(CNc3ccc([C@H]4C[C@@H]4C(=O)O)cn3)c(F)cc2F)c(F)c1 [Example 70] | 3630 nM |
| O=C(O)[C@H]1C[C@@H]1c1ccc(NCc2cc(-c3c(F)cc(OC4CC4)cc3F)c(F)cc2F)nc1 [Example 71] | 140 nM |
| COc1cc(OC)c(-c2cc(CNc3ccc([C@H]4C[C@@H]4C(=O)O)cn3)c(F)cc2F)c(OC)c1 [Example 72] | 838 nM |
| O=C(O)[C@H]1C[C@@H]1c1ccc(NCc2cc(-c3c(Cl)cccc3Cl)c(F)cc2F)nc1 [Example 73] | 40 nM |
| N#CC1(c2ccccc2-c2cc(CNc3ccc([C@H]4C[C@@H]4C(=O)O)cn3)c(F)cc2F)CC1 [Example 74] | 1340 nM |
| COc1cc(OC)c(Cl)c(-c2cc(CNc3ccc([C@H]4C[C@@H]4C(=O)O)cn3)c(F)cc2F)c1Cl [Example 75] | 50 nM |
| Cc1cc(C(N)=O)cc(C)c1-c1cc(CNc2ccc([C@H]3C[C@@H]3C(=O)O)cn2)c(F)cc1F [Example 76] | 340 nM |
| Cc1cc(OCC2CCOC2)cc(C)c1-c1cc(CNc2ccc([C@H]3C[C@@H]3C(=O)O)cn2)c(F)cc1F (stereo partly shown) [Example 78] | 5 nM |
| Cc1cc(O[C@H]2CCOC2)cc(C)c1-c1cc(CNc2ccc([C@H]3C[C@@H]3C(=O)O)cn2)c(F)cc1F [Example 79] | 42 nM |
| O=C(O)[C@H]1C[C@@H]1c1ccc(NCc2cc(-c3c(F)cc(F)cc3F)c(F)cc2F)nc1 [Example 81] | 491 nM |
| Cc1cc(CO)cc(C)c1-c1cc(CNc2ccc([C@H]3C[C@@H]3C(=O)O)cn2)c(F)cc1F [Example 82] | 236 nM |
| Cc1cc(OCC(C)(C)O)cc(C)c1-c1cc(CNc2ccc([C@H]3C[C@@H]3C(=O)O)cn2)c(F)cc1F [Example 83] | 104 nM |
| Cc1cc(OC2CCOCC2)cc(C)c1-c1cc(CNc2ccc([C@H]3C[C@@H]3C(=O)O)cn2)c(F)cc1F [Example 84] | 57 nM |
| Cc1cc(-c2cc(=O)n(C)cn2)cc(C)c1-c1cc(CNc2ccc([C@H]3C[C@@H]3C(=O)O)cn2)c(F)cc1F [Example 85] | 25 nM |
| Cc1cc(-c2ccn(C)c(=O)c2)cc(C)c1-c1cc(CNc2ccc([C@H]3C[C@@H]3C(=O)O)cn2)c(F)cc1F [Example 86] | 29 nM |
| Cc1cc(OCC2(C)COC2)cc(C)c1-c1cc(CNc2ccc([C@H]3C[C@@H]3C(=O)O)cn2)c(F)cc1F [Example 87] | 89 nM |
